Experimental data: ChEMBL document CHEMBL5465560, “Selectivity Literature for EUbOPEN Chemogenomic Library” (2024)
Blank lines part the entries; values can stand above or below the compound they belong to.

Key:
[1] = molecular target: Serine/threonine-protein kinase NIM1 (Homo sapiens, UniProt Q8IY84); experiment: Selectivity interaction (Ambit KINOMEscan and KiNATiv profiling in Jurkat cells) EUB0000090b NIM1K; type: cell-based; settings: at 1 µM
[2] = molecular target: T1, Serine/threonine-protein kinase Nek5 (Homo sapiens) (UniProt Q6P3R8); experiment: Selectivity interaction (KinomeScan (DiscoverX)) EUB0001079a NEK5; settings: at 1 µM
T1 sequence (whole entry): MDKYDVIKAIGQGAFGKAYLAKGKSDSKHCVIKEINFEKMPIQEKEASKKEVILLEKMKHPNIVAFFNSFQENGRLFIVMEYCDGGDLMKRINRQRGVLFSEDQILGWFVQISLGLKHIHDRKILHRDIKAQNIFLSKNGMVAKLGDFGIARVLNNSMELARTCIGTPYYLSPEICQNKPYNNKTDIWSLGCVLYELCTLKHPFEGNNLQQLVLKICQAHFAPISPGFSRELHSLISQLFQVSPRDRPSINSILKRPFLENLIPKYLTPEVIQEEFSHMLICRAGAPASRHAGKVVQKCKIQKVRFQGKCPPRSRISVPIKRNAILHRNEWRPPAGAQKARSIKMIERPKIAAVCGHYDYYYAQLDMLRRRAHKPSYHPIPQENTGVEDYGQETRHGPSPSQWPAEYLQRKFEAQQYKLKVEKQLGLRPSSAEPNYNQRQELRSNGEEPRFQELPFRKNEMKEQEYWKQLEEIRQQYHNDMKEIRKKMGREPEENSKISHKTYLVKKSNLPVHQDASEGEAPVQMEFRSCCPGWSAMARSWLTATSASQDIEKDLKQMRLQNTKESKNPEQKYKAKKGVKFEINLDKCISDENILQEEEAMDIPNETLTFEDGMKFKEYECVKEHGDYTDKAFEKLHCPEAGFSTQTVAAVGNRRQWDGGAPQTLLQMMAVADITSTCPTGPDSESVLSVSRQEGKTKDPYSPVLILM

[3] = molecular target: T2, Protein kinase C iota type (Homo sapiens) (UniProt P41743); experiment: Selectivity interaction (Millipore kinase profiler) EUB0000124b PRKCI; settings: at 10 µM
T2 sequence (whole entry): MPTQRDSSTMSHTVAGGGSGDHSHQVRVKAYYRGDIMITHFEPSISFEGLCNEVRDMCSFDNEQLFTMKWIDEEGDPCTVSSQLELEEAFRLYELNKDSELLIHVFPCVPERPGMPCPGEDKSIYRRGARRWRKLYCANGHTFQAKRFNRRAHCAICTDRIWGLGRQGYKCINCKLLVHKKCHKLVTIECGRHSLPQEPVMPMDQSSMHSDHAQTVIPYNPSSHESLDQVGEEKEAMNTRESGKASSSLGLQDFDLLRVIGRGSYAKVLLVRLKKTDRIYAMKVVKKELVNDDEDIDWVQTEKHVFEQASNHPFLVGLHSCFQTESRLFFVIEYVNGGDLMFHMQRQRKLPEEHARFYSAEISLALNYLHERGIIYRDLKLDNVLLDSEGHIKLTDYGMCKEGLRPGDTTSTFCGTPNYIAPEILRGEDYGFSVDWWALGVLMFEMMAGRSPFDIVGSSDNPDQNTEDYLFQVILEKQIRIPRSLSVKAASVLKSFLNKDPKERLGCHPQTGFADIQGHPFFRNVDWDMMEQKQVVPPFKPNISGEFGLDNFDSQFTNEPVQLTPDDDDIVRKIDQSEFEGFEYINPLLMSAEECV

[4] = molecular target: T3, Mitogen-activated protein kinase kinase kinase kinase 2 (Homo sapiens) (UniProt Q12851); experiment: Selectivity interaction (ActivX KiNativ screen (ex vivo kinase selectivity in human PBMCs)) EUB0001619a MAP4K2; type: cell-based; settings: PBMC, at 1 µM
T3 sequence (whole entry): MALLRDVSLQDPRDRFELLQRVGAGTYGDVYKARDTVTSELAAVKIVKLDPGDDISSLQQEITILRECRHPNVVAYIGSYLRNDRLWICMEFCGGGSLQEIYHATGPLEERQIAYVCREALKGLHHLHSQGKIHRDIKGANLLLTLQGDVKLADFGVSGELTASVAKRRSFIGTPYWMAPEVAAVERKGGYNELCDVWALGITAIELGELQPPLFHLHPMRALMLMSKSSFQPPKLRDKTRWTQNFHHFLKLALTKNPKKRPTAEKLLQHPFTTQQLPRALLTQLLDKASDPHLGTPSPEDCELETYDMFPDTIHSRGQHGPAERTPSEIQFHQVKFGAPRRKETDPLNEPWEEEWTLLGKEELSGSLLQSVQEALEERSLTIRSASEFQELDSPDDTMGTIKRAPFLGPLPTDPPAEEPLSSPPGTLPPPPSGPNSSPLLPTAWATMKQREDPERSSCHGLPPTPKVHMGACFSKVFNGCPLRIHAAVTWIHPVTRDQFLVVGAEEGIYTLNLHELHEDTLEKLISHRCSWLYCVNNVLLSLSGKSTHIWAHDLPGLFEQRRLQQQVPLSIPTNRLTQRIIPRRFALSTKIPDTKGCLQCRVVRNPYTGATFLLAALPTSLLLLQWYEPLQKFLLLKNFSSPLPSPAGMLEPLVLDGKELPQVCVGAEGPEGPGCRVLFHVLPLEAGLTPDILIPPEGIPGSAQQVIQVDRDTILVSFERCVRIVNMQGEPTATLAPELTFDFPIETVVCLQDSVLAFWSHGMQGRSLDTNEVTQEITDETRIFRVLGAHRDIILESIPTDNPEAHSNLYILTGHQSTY

[5] = molecular target: Angiopoietin-1 receptor (Homo sapiens) (UniProt Q02763); experiment: Selectivity interaction (KinomeScan (DiscoverX)) EUB0001049a TEK; settings: at 1 µM
[6] = molecular target: Interleukin-1 receptor-associated kinase 1 (Homo sapiens) (UniProt P51617); experiment: Selectivity interaction (KinomeScan (DiscoverX)) EUB0000092b IRAK1; settings: at 10 µM
[7] = molecular target: Serine/threonine-protein kinase N1 (Homo sapiens, UniProt Q16512); experiment: Selectivity interaction (KinomeScan (DiscoverX)) EUB0000092b PKN1; settings: at 10 µM
Serine/threonine-protein kinase N1, sequence (Q16512 2-942 limits assumed): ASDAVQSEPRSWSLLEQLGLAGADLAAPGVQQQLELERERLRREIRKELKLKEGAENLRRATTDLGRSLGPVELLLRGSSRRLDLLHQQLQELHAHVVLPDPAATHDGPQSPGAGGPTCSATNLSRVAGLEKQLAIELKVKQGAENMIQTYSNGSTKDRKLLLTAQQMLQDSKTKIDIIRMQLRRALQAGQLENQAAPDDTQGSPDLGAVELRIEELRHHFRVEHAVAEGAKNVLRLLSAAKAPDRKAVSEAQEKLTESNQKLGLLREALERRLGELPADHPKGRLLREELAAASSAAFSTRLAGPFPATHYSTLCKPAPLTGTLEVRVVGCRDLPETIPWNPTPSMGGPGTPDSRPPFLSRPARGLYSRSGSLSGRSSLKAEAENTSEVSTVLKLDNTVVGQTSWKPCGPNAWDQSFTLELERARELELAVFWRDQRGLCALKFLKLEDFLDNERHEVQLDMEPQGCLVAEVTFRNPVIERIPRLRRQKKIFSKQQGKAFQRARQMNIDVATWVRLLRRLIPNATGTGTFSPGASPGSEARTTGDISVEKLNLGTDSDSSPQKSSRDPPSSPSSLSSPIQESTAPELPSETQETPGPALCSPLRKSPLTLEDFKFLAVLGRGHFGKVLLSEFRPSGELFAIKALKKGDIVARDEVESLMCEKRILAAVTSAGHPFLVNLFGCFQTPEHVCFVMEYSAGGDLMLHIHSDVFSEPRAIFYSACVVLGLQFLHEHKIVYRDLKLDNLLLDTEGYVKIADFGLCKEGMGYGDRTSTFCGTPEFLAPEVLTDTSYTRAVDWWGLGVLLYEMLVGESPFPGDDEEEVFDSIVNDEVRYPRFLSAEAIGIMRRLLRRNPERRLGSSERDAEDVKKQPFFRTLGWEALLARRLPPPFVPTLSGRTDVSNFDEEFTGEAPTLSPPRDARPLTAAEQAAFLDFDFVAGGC

Angiopoietin-1 receptor (Homo sapiens), sequence (Q02763 whole entry): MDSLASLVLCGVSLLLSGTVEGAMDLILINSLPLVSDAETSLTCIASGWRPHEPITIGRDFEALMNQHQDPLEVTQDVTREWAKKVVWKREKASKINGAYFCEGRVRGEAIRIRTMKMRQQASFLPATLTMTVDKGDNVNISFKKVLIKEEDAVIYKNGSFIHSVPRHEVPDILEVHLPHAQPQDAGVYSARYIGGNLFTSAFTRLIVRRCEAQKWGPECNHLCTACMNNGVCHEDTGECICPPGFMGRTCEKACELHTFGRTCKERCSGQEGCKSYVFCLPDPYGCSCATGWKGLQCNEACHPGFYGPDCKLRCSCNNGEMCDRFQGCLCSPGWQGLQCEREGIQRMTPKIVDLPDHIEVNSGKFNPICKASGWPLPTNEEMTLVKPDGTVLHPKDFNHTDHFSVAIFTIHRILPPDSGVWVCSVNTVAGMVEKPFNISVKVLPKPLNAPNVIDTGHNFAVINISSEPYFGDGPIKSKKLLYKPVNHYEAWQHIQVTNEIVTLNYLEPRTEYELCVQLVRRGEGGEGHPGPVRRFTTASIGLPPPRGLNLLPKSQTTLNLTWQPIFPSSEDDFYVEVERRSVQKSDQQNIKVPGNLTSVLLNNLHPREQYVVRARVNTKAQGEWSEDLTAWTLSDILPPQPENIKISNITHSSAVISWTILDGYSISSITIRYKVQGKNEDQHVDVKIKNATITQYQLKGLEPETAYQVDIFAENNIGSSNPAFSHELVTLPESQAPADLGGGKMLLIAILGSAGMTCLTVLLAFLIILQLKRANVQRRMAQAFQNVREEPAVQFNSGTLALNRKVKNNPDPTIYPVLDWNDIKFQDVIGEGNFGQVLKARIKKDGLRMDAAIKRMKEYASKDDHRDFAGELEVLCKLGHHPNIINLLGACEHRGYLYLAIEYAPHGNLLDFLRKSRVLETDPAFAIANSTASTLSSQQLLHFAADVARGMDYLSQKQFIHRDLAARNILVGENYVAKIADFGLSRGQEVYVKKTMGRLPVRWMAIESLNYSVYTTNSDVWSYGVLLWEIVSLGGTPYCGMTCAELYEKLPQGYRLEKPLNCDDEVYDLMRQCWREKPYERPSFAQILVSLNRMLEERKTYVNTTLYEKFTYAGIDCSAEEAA
Serine/threonine-protein kinase NIM1, sequence (Q8IY84 whole entry): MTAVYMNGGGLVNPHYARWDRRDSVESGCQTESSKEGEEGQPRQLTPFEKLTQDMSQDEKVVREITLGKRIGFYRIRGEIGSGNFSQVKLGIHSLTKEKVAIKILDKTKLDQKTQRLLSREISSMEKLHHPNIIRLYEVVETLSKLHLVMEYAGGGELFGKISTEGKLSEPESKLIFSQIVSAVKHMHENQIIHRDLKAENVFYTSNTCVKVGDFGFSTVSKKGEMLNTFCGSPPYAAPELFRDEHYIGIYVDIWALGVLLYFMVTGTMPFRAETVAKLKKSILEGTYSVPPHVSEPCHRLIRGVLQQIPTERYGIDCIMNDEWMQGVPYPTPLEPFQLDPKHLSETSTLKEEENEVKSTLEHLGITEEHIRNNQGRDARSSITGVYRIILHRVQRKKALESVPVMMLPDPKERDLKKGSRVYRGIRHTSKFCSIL
Interleukin-1 receptor-associated kinase 1 (Homo sapiens), sequence (P51617 whole entry, looked up): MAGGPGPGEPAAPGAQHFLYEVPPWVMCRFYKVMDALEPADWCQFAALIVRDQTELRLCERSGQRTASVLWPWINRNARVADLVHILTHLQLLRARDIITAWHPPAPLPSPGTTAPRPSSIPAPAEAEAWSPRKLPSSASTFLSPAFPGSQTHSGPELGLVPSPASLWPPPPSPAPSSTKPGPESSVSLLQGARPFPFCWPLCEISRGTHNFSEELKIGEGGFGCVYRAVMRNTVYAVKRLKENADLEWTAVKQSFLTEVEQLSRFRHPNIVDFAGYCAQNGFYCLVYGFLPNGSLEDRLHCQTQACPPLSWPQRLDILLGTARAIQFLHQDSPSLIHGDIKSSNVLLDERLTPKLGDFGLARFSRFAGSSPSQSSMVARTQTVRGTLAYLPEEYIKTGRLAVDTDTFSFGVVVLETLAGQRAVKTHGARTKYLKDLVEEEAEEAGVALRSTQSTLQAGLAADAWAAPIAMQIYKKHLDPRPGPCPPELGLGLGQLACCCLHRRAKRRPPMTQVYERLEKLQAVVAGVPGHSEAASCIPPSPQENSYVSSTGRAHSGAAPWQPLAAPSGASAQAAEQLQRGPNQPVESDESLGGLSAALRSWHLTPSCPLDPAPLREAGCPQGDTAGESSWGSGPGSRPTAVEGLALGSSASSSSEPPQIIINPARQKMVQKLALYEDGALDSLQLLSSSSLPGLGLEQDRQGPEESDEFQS

SMILES: CN(C)C/C=C/C(=O)Nc1ccc(C(=O)N2CCCC(Nc3ncc(Cl)c(-c4c[nH]c5ccccc45)n3)C2)cc1 (configuration not stated)
- % of control [1]: 93%

SMILES: Nc1cnc(N2CCc3cc(S(=O)(=O)Nc4c(F)cc(Cl)cc4F)cc(N4CCCC4=O)c32)nc1 [TP-020n]
- % of control [2]: 100%

- % of control [3]: 83%
SMILES: CC(=O)Nc1cccc(-n2c(=O)n(C3CC3)c(=O)c3c(Nc4ccc(I)cc4F)n(C)c(=O)c(C)c32)c1

SMILES: N#Cc1cccc(-c2c[nH]c3ncnc(N4CCOCC4)c23)c1
- % of inhibition [4]: 31%

SMILES: COc1cc(Nc2nc(C)cc(-c3cnn4nc(OC)ccc34)n2)cc(C(F)(F)F)c1
- % of control [5]: 100%

SMILES: CCC(=O)N1CCN(c2ccc(-n3c(=O)ccc4cnc5ccc(-c6cnc7ccccc7c6)cc5c43)cc2C(F)(F)F)CC1
- % of control [6]: 100%
- % of control [7]: 92%
